This note sets out measurements from the METLIN SMRT retention time set (Domingo-Almenara et al. 2019).

This series can be described thus: gradient 5% acetonitrile 3 min, to 50% in 2 min, to 85% in 15 min, held 3 min, 100 µL/min. The note with it: column: Zorbax Extend-C18 2.1 x 50 mm; eluents: water / acetonitrile, 0.1% formic acid. The procedure, abridged:
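Retention time was recorded from adduct peaks, which were picked computationally and each inspected manually. Pure standards ran in mixtures of ~100 molecules on HPLC coupled to a quadrupole time-of-flight mass spectrometer, in positive and negative ionization mode, through a Zorbax Extend-C18 column (2.1 × 50 mm, 1.8 μm) at 100 μL/min. Eluents were water and acetonitrile, each with 0.1% formic acid.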
As to `O=C(NCCn1c(CCc2ccccc2)nc2ccccc21)NCc1ccco1`, the RP-LC retention time is 656 s.

On to `Cc1nc(-c2noc(-c3ccc(F)cc3)n2)cn1CC(=O)Nc1ccccc1`, for which the RP-LC retention time was found to be 836 s.

`Cc1ccc(CN2C(=O)NC3(CCN(C(=O)c4ccc5c(c4)OCO5)CC3)C2=O)cc1`: the RP-LC retention time turned out to be 819 s.

On to `COCCn1c(CCCC(=O)NCc2cccnc2)nc2cccnc21`, for which the RP-LC retention time amounted to 534 s.

Compound `O=C(c1cccc(Cl)c1)N1CCN(C(=O)c2nnn3c2COC(c2ccc(F)cc2)C3)CC1` (centres undefined) registered an RP-LC retention time of 913 s.

As for `COc1ccccc1C(=O)N1CCCC1COc1ccc(C(=O)N2CCCC2)cc1` (centres undefined), the RP-LC retention time came to 784 s.

`CC(=O)N1c2ccc(S(=O)(=O)N3CCCCCC3)cc2CC1C(=O)NCCc1ccccc1` (centres undefined) displayed an RP-LC retention time of 918 s.

Take `O=c1n(Cc2ccc3c(c2)OCO3)nc2c(S(=O)(=O)N3CCCCC3)cccn12`: the RP-LC retention time amounted to 828 s.

Take `CCOc1ccc(NC(=O)N2CCC3(CC2)NC(=O)c2ccc(Cl)cc2N3CC)cc1`: the RP-LC retention time is 874 s.

Compound `Cc1ncsc1C1N(C2CCN(S(=O)(=O)c3ccccc3)CC2)C(=O)C12CCCC2` (centres undefined) displayed an RP-LC retention time of 850 s.

For the compound `Cc1cccc(-c2nc(C)c(C(=O)NC3CC3)s2)c1`, the RP-LC retention time came to 869 s.

Compound `COc1ccc(OC)c(NC(=O)NCc2cccn2Cc2ccccc2)c1` came in with an RP-LC retention time of 927 s.

On to `CCn1c(CCc2ccccc2NS(=O)(=O)c2ccc(F)cc2F)nc2ccccc21`, for which the RP-LC retention time stood at 755 s.

Take `N#Cc1cccc(NC(=O)Cc2csc3nc(-c4ccccc4)cn23)c1`: the RP-LC retention time came out at 782 s.

With `O=C(NCc1cc(F)cc(F)c1)C1CCN(C(=O)c2ncn3c2COC(c2ccc(F)cc2)C3)CC1` (centres undefined), the RP-LC retention time was 802 s.

`CCc1noc(NC(C)=O)c1-c1ccc(OC)c(S(=O)(=O)NCc2ccccc2OC)c1` returned an RP-LC retention time of 791 s.

In turn, `CC1=C(c2ccc(C)cc2)S(=O)(=O)N=C1N1CCCN(C(=O)c2ccc(C)cc2)CC1` returned an RP-LC retention time of 885 s.

With `O=C(NCc1ccc(C(F)(F)F)cc1)c1cnc(-c2ccccc2)nc1-c1ccncc1`, the RP-LC retention time turned out to be 935 s.

The compound `Cc1ccc(NC(=O)Cn2c(=O)n(-c3ccc(F)cc3)c(=O)c3c2cc(C)n3C)cc1C` showed an RP-LC retention time of 888 s.

Take `O=C1CC(CNS(=O)(=O)c2ccc3c(c2)OCCO3)CN1c1ccc(Cl)cc1` (centres undefined): the RP-LC retention time is 788 s.

As to `COc1cc2c(cc1OC)C(C(=O)N1CC(C)CC(C)C1)C(c1cccnc1)N(C)C2=O` (centres undefined), the RP-LC retention time came to 659 s.

As for `CC(=O)c1ccc(NC(=O)c2cc(C)nc3ccccc23)cc1`, the RP-LC retention time worked out at 644 s.

`CCN1CCN(c2nc3cc(C(=O)OC)ccc3c(=O)n2-c2cccc(Cl)c2)CC1` showed an RP-LC retention time of 665 s.

As to `Cc1c(C)n(-c2ccccc2)c2ncn(CC(=O)NC(C)Cc3ccco3)c(=O)c12` (centres undefined), the RP-LC retention time stood at 848 s.

`CCc1noc2nc(C)n(CC(=O)NC3CCCc4ccccc43)c(=O)c12` (centres undefined) returned an RP-LC retention time of 867 s.

For `CCN(CC)c1nc2ccsc2c(=O)n1CCC(=O)NC1CCCC1`, the RP-LC retention time was 726 s.

Compound `CCOc1ccc(NC(=O)Nc2nccn(-c3cccc(F)c3)c2=O)cc1` had an RP-LC retention time of 939 s.

In turn, `CCc1noc(-c2cnc3nc(C)ccc3c2Nc2ccc(OC)cc2)n1` gave an RP-LC retention time of 764 s.

`COc1ccc(CNC(=O)N2CCC3(C2)C(=O)N(C)c2ccc(OC)cc23)cc1` (centres undefined): the RP-LC retention time came out at 747 s.

`CCSC1=C(C#N)C(c2ccccc2Cl)C(C(=O)Nc2ccccc2C)=C(C)N1` (centres undefined) came in with an RP-LC retention time of 862 s.

`Cc1ccc(C)c(NC(=O)NC2CCN(c3ccc(F)c(C)c3)C2=O)c1` (centres undefined): the RP-LC retention time stood at 891 s.

For the compound `COC(=O)N1CCN(CCNC(=O)NCCCc2ccccc2)CC1`, the RP-LC retention time turned out to be 559 s.

The compound `Cn1ncc2c3ccccc3n(CC(=O)NCCN3CCOCC3)c2c1=O` returned an RP-LC retention time of 592 s.

With `COc1ccc(C)cc1NC(=O)N1CCc2nc[nH]c2C1`, the RP-LC retention time was found to be 592 s.

`Cc1cc(-c2ccc(S(=O)(=O)N3CCC(C(=O)N4CCCC4)CC3)o2)n[nH]1`: the RP-LC retention time came to 679 s.

`CN1C(=O)COc2cc(-c3noc(C(=O)NCc4cccnc4)n3)ccc21` showed an RP-LC retention time of 613 s.

`O=C(CC1CCCC1)N1CCCC1c1nc(C2CCOCC2)no1` (centres undefined) yielded an RP-LC retention time of 780 s.

`CCN1C(=O)C(C)(C(=O)Nc2ccc(C)cc2C)Oc2cccnc21` (centres undefined): the RP-LC retention time was 744 s.

In turn, `CC(C)CNC(=O)C1Cn2cccc2C(=O)N1` (centres undefined) had an RP-LC retention time of 651 s.

On to `COc1ccccc1C(=O)N1CCN(C2=NS(=O)(=O)c3ccccc32)CC1`, for which the RP-LC retention time turned out to be 698 s.

The compound `Cc1cc2c(cc1CNC(=O)Cn1cc(C(=O)c3ccco3)c3ccccc31)OCCCO2` showed an RP-LC retention time of 837 s.

The compound `Cc1nnc(N2CCC(C(=O)NCCN3CCOCC3)CC2)c2nn(-c3ccc(Cl)cc3)c(C)c12` displayed an RP-LC retention time of 571 s.

`Cn1nccc1C(=O)N1CC(c2nc(CCOCC3CCCC3)no2)C1` gave an RP-LC retention time of 824 s.

`O=C(NC1CCN(c2ccc(N3CCCCCC3)nn2)CC1)c1ccc(F)c(F)c1` returned an RP-LC retention time of 682 s.

As to `COC(=O)c1c(-c2ccc(Cl)cc2)noc1NCCN1CCOCC1`, the RP-LC retention time was determined as 660 s.

For `CCOC(=O)CCC(=O)NCCN1CCN(c2ccccc2)CC1`, the RP-LC retention time worked out at 564 s.

Take `O=S(=O)(c1ccc2nc(N3CCN(c4ccccn4)CC3)ccc2c1)N1CCCCC1`: the RP-LC retention time was determined as 649 s.

`Cc1ccc(CNC(=O)C2(C)CN(S(C)(=O)=O)CC(=O)N2c2ccccc2F)cc1` (centres undefined) registered an RP-LC retention time of 804 s.

The compound `COCCNC(=O)N1CCC(c2nnc(C(F)(F)F)o2)CC1` displayed an RP-LC retention time of 616 s.

For the compound `Cn1nc(-c2nnc(-c3ccccc3F)o2)c2c1CCN(S(=O)(=O)c1ccccc1Cl)C2`, the RP-LC retention time worked out at 928 s.

Regarding `COc1ccc(OCc2nc(-c3ccc(S(=O)(=O)N4CCOCC4)cc3)no2)cc1`, the RP-LC retention time is 1000 s.

As to `CC1CCCC(C)N1CCCNC(=O)Cn1ncc2c3ccccc3n(C)c2c1=O` (centres undefined), the RP-LC retention time is 632 s.

On to `CCN(c1ccccc1)S(=O)(=O)c1ccc(C(=O)Nc2cc(C)no2)cc1`, for which the RP-LC retention time turned out to be 882 s.

As for `O=C(Nc1cnn(-c2ncc(N3CCSCC3)cn2)c1)C1CCCO1` (centres undefined), the RP-LC retention time stood at 665 s.

Consider `O=C1CCCc2cc(S(=O)(=O)N3CCC(C(=O)N4CCCCCC4)CC3)ccc2N1`, for which the RP-LC retention time amounted to 716 s.

Compound `Cc1cc(C)cc(C(=O)N2CCC(COc3ccc(C(=O)NC(C)C)cc3)CC2)c1` registered an RP-LC retention time of 953 s.

`CC1=C(c2ccc(F)cc2)S(=O)(=O)N=C1N1CCCN(C(=O)NCCC(C)C)CC1` registered an RP-LC retention time of 837 s.

As for `CCC(CC)C(=O)Nc1nc(-c2ccc3c(c2)N(CC)C(=O)CO3)cs1`, the RP-LC retention time is 980 s.

`C=CCNC(=O)c1cn(-c2cc(-c3nc(CC)no3)ccn2)cn1` gave an RP-LC retention time of 646 s.
